Patent EP0076452A2, “Cephalosporin derivatives, process for their preparation and pharmaceutical compositions containing them” (priority 1981, dated 1983)
In brackets after ≈: the same amount, converted by molar mass. Like-named read-outs stand apart in the source and are kept apart here.

Legend:
Escherichia coli 205 [1] = experiment: Antibiotic activity in vitro, agar dilution method in DST agar (MIC); type: cell-based; conditions: for MIC Escherichia coli 205: in vitro
From the text: (§1) A. Die antibiotische Aktivität der Testverbindungen in vitro wurde durch die Agarverdünnungsmethode nach Ericsson, H.M., und Sherris, S.C., 1971, Acta Path. Microb. Scand. Section B, Suppl. No. 217, Bd. 1-90, in DST Agar ermittelt. Die gefundenen, das Wachstum der Testorganismen noch hemmenden Minimalkonzentrationen (MIC = minimum inhibiting concentrations) werden in Mikrogramm pro Mililiter ([…]) für die geprüften Verbindungen in der Tabelle 1 angegeben.

Proteus rettgeri 856 = experiment: as above; type: cell-based; conditions: for MIC Proteus rettgeri 856: in vitro
From the text: as §1

[2] = system: Streptococcus pyogenes Aronson; experiment: as above; type: cell-based; conditions: for MIC: Streptococcus pyogenes, read-out: MIC Streptococcus pyogenes Aronson
From the text: as §1

Escherichia coli 205 [3] = experiment: Chemotherapeutic efficacy in vivo against systemic infection in mice (ED50); set-up: species or system Maus; conditions: for ED50: Escherichia coli, 205, sc, read-out: ED50 Escherichia coli 205
From the text: (§2) B. Die chemotherapeutische Wirksamkeit in vivo gegen systemische Infektionen in weiblicher SPF, MF2 Mäusen wurde nach der Methode von Zak, 0. et al., 1979, Drugs Exptl. Clin. Res. 5, 45-59, ermittelt. Die gefundenen ED50-Werte in Milligramm Substanz pro Kilogramm Maus (mg/kg) für eine Anzahl von Mikroorganismen werden für die subcutan (s.c.) applizierten Testverbindungen in der Tabelle 2 angegeben.

[4] = system: Staphylococcus aureus 10 B; experiment: as above; set-up: species or system Maus; conditions: for ED50: Staphylococcus aureus, 10B, sc, read-out: ED50 Staphylococcus aureus 10 B; for ED50 Staphylococcus aureus 10 B: s.c.
From the text: as §2

[5] = Escherichia coli, 205, in vitro, agar dilution, DST Agar, read-out: MIC Escherichia coli 205
[6] = Providencia rettgeri, 856, in vitro, agar dilution, DST Agar, read-out: MIC Proteus rettgeri 856
[7] = in vitro, agar dilution, DST Agar
[8] = s.c., systemic infection, female SPF MF2 mice
[9] = systemic infection, female SPF MF2 mice
[10] = agar dilution, DST Agar, listed as 8

Structure (SMILES)	MIC (Escherichia coli 205 [1]; [5]) [µg/mL]	MIC (Proteus rettgeri 856; [6]) [µg/mL]	MIC [2, 7] [µg/mL]	ED50 (Escherichia coli 205 [3]; [8]) [mg/kg]	ED50 [4, 9] [mg/kg]	other results
CC(C)(ON=C(C(=O)NC1C(=O)N2C(C(=O)[O-])=C(C[n+]3ccccc3)CSC12)c1coc(N)n1)C(=O)O (stereo not shown) [Testverbindung 9, 3-Pyridiniomethyl-7ß-[2-(2-amino-4-oxazolyl)-2-Z-(2-carboxy-prop-2-yloxyimino)-acetylamino]-3-cephem-4-carboxylat-natriumsalz]	0.2 (≈ 0.377 µM)	0.01 (≈ 0.0188 µM)	0.2 (≈ 0.377 µM)	4.4	> 30	–
CC(C)(ON=C(C(=O)NC1C(=O)N2C(C(=O)[O-])=C(C[n+]3ccc(C(N)=O)cc3)CSC12)c1coc(N)n1)C(=O)O (stereo not shown) [Testverbindung 10]	4 (≈ 6.97 µM)	0.2 (≈ 0.349 µM)	0.02 (≈ 0.0349 µM)	> 30	> 30	–
CO/N=C(\C(=O)N[C@@H]1C(=O)N2C(C(=O)O)=C(CSc3nnnn3CCN(C)C)CS[C@H]12)c1coc(N)n1 [Testverbindung 3]	0.1 (≈ 0.181 µM)	0.02 (≈ 0.0362 µM)	0.02 (≈ 0.0362 µM)	1.7	28	–
CC(C)(O/N=C(\C(=O)N[C@@H]1C(=O)N2C(C(=O)[O-])=C(C[n+]3ccc(C(N)=O)cc3)CS[C@H]12)c1coc(N)n1)C(=O)O [Testverbindung 10]	0.5 (≈ 0.872 µM)	0.5 (≈ 0.872 µM)	0.2 (≈ 0.349 µM)	1.6	> 30	–
CO/N=C(\C(=O)N[C@@H]1C(=O)N2C(C(=O)OCOC(=O)C(C)(C)C)=C(COC(N)=O)CS[C@H]12)c1coc(N)n1 [Beispiel 18, 3-Carbamoyloxymethyl-7ß-[2-(2-amino-4-oxazolyl)-2-Z-methoxyimino-acetylamino]-3-cephem-4-carbonsäure-pivaloyloxymethylester]	–	–	–	–	–	MIC Escherichia coli 205 (Escherichia coli 205 [1]; agar dilution, DST Agar): 0,1 µg/ml; MIC Proteus rettgeri 856 (Proteus rettgeri 856; agar dilution, DST Agar): 0,01 µg/ml; MIC Streptococcus pyogenes Aronson [2, 7]: 0,02 µg/ml; ED50 Escherichia coli 205 (Escherichia coli 205 [3]; [8]): >30 mg/kg; ED50 Staphylococcus aureus 10 B [4, 9]: 8 mg/kg
CC(C)(O/N=C(\C(=O)N[C@@H]1C(=O)N2C(C(=O)[O-])=C(C[n+]3ccccc3)CS[C@H]12)c1coc(N)n1)C(=O)O [Testverbindung 9]	1 (≈ 1.88 µM)	0.2 (≈ 0.377 µM)	0.5 (≈ 0.942 µM)	5.6	> 30	–
CO/N=C(\C(=O)N[C@@H]1C(=O)N2C(C(=O)[O-])=C(C[n+]3ccc(C(N)=O)cc3)CS[C@H]12)c1coc(N)n1 [Testverbindung 5]	–	–	–	–	–	MIC Escherichia coli 205 (Escherichia coli 205 [1]; agar dilution, DST Agar): 0,2 µg/ml; MIC Proteus rettgeri 856 (Proteus rettgeri 856; agar dilution, DST Agar): 0,02 µg/ml; ED50 Escherichia coli 205 (Escherichia coli 205 [3]; [8]): 2,4 mg/kg; ED50 Staphylococcus aureus 10 B [4, 9]: 5,5 mg/kg
CC(=O)OCC1=C(C(=O)O)N2C(=O)[C@@H](NC(=O)/C(=N\O)c3coc(N)n3)[C@H]2SC1 [Testverbindung 6]	0.1 (≈ 0.235 µM)	0.02 (≈ 0.047 µM)	–	1	1.35	–
CON=C(C(=O)NC1C(=O)N2C(C(=O)[O-])=C(C[n+]3cccc(Cl)c3)CSC12)c1coc(N)n1 (stereo not shown) [Testverbindung 16, 3-(3-Chlorpyridiniomethyl)-7ß-[2-(2-amino-4-oxazolyl)-2-Z-methoxyiminoacetylamino]-3-cephem-4-carboxylat]	–	–	–	–	–	MIC (Escherichia coli 205 [1]; Escherichia coli, 205, read-out: MIC Escherichia coli 205): 8 µg/mL (≈ 16.2 µM); MIC (Proteus rettgeri 856; Providencia rettgeri, 856, read-out: MIC Proteus rettgeri 856): 0.1 µg/mL (≈ 0.203 µM); MIC [2]: 0.2 µg/mL (≈ 0.406 µM); ED50 (Escherichia coli 205 [3]): 14 mg/kg; ED50 [4]: 30 mg/kg
CO/N=C(\C(=O)N[C@@H]1C(=O)N2C(C(=O)O)=C(CSc3nnnn3CCN(C)C)CS[C@H]12)c1coc(N)n1.Cl.Cl [Testverbindung 3, 3-[1-(2-Dimethylaminoäthyl)-1H-tetrazol-5-ylthiomethyl]-7ß-[2-(2-amino-4-oxazolyl)-2-Z-methoxyiminoacetylamino]-3-cephem-4-carbonsäure-dihydrochlorid]	–	–	–	–	–	MIC Escherichia coli 205 (Escherichia coli 205 [1]; agar dilution, DST Agar): 0,2 µg/ml; MIC Proteus rettgeri 856 (Proteus rettgeri 856; agar dilution, DST Agar): 0,01 µg/ml; MIC Streptococcus pyogenes Aronson [2, 7]: 0,05 µg/ml; ED50 Escherichia coli 205 (Escherichia coli 205 [3]; [8]): >30 mg/kg; ED50 Staphylococcus aureus 10 B [4, 9]: >30 mg/kg
CO/N=C(/C(=O)N[C@@H]1C(=O)N2C(C(=O)O)=C(CSc3nnnn3CCN(C)C)CS[C@H]12)c1coc(N)n1 [Testverbindung 4]	8 (≈ 14.5 µM)	2 (≈ 3.62 µM)	0.05 (≈ 0.0905 µM)	–	–	–
CO/N=C(\C(=O)N[C@@H]1C(=O)N2C(C(=O)O)=C(COC(C)=O)CS[C@H]12)c1coc(N)n1 [Testverbindung 13]	0.1 (≈ 0.228 µM)	–	0.01 (≈ 0.0228 µM)	1	5	–
CO/N=C(\C(=O)N[C@@H]1C(=O)N2C(C(=O)[O-])=C(C[n+]3ccc(C(=O)O)cc3)CS[C@H]12)c1coc(N)n1 [Testverbindung 17]	0.5 (≈ 0.995 µM)	0.02 (≈ 0.0398 µM)	0.05 (≈ 0.0995 µM)	–	> 30	–

Further lines, with some results ahead:

MIC (Escherichia coli 205 [1]; [5]) [µg/mL]	MIC (Proteus rettgeri 856; [6]) [µg/mL]	MIC [2, 7] [µg/mL]	Structure (SMILES)	ED50 (Escherichia coli 205 [3]; [8]) [mg/kg]	ED50 [4, 9] [mg/kg]	other results
–	–	0.02 (≈ 0.0399 µM)	CO/N=C(\C(=O)N[C@@H]1C(=O)N2C(C(=O)[O-])=C(C[n+]3ccc(C(N)=O)cc3)CS[C@H]12)c1coc(N)n1 [Testverbindung 5, 3-(4-Carbamoylpyridiniomethyl)-7β-[2-(2-amino-4-oxazolyl)-2-Z-methoxyiminoacetylamino]-3-cephem-4-carboxylat]	–	–	MIC Escherichia coli 205 (Escherichia coli 205 [1]; [10]): 4 µg/mL (≈ 7.98 µM); MIC Proteus rettgeri 856 (Proteus rettgeri 856; [10]): 1 µg/mL (≈ 1.99 µM); ED50 Escherichia coli 205 (Escherichia coli 205 [3]; s.c., systemic infection, female SPF MF2 mice, listed as 8): >30 mg/kg; ED50 Staphylococcus aureus 10 B ([4]; systemic infection, female SPF MF2 mice, listed as 8): >30 mg/kg
0.5 (≈ 0.927 µM)	–	0.1 (≈ 0.185 µM)	CO/N=C(\C(=O)N[C@@H]1C(=O)N2C(C(=O)O)=C(CSc3nnnn3CC(=O)O)CS[C@H]12)c1coc(N)n1 [Testverbindung 2]	0.63	55	–
0.2 (≈ 0.544 µM)	–	0.01 (≈ 0.0272 µM)	CO/N=C(\C(=O)N[C@@H]1C(=O)N2C(C(=O)O)=CCS[C@H]12)c1coc(N)n1 [Testverbindung 14]	9	30	–
0.1 (≈ 0.202 µM)	–	–	CO/N=C(\C(=O)N[C@@H]1C(=O)N2C(C(=O)O)=C(CSc3nnnn3C)CS[C@H]12)c1coc(N)n1 [Testverbindung 1]	1.5	12	–
0.5 (≈ 0.995 µM)	–	0.02 (≈ 0.0398 µM)	CON=C(C(=O)NC1C(=O)N2C(C(=O)[O-])=C(C[n+]3ccc(C(=O)O)cc3)CSC12)c1coc(N)n1 (stereo not shown) [Testverbindung 17, 3-(4-Carboxylatpyridiniomethyl)-7ß-[2-(2-amino-4-oxazolyl)-2-Z-methoxyiminoacetylamino]-3-cephem-4-carboxylat-natriumsalz]	2	5.5	–
